Test results taken from US20250122183A1 (Pfizer Inc., priority 2023, published 2025).
Like-named read-outs stand apart in the source and are kept apart here.

Legend:
Format in all cases: biochemical
Settings in all cases: replicate number in parentheses
[1] = target: KAT6A Full length enzyme (Homo sapiens (Human), UniProt Q92794); assay: KAT6A assay (SAMDI-MS acetylation of H3 1-21 peptide)
[2] = target: KAT7+JADE1+EAF6+ING5 4 protein complex (Homo sapiens (Human), UniProt O95251); assay: KAT7 JADE1 assay (SAMDI-MS acetylation of H3 1-21 peptide)
[3] = target: KAT8 Full length enzyme (Homo sapiens (Human), UniProt Q9H7Z6); assay: KAT8 assay (SAMDI-MS acetylation of H3 1-21 peptide)
[4] = Morrison equation fit, read-out: KAT6A Ki (nM) (replicate number)
[5] = Morrison equation fit, read-out: KAT7 JADE1 Ki (nM) (replicate number)
[6] = Morrison equation fit, read-out: KAT8 Ki (nM) (replicate number)
[7] = read-out: KAT6A Ki (nM) (replicate)
[8] = read-out: KAT7 JADE1 Ki (nM) (replicate)
[9] = read-out: KAT8 Ki (nM) (replicate)

Chain of KAT8 Full length enzyme (Q9H7Z6 whole entry): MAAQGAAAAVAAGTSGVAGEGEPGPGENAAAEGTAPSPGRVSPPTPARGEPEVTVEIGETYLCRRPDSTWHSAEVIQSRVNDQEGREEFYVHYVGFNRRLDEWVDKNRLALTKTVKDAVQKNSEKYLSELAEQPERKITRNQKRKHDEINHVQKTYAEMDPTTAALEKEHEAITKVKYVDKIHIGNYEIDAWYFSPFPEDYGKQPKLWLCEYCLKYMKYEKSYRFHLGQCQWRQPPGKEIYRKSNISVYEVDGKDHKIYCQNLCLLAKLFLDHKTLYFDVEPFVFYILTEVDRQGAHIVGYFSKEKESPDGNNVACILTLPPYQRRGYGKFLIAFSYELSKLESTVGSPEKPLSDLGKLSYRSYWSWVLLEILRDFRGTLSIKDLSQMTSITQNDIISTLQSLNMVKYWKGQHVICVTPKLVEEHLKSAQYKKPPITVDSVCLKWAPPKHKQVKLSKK
Chain of KAT6A Full length enzyme (Q92794 other isoform, or with tags, fused parts or gaps): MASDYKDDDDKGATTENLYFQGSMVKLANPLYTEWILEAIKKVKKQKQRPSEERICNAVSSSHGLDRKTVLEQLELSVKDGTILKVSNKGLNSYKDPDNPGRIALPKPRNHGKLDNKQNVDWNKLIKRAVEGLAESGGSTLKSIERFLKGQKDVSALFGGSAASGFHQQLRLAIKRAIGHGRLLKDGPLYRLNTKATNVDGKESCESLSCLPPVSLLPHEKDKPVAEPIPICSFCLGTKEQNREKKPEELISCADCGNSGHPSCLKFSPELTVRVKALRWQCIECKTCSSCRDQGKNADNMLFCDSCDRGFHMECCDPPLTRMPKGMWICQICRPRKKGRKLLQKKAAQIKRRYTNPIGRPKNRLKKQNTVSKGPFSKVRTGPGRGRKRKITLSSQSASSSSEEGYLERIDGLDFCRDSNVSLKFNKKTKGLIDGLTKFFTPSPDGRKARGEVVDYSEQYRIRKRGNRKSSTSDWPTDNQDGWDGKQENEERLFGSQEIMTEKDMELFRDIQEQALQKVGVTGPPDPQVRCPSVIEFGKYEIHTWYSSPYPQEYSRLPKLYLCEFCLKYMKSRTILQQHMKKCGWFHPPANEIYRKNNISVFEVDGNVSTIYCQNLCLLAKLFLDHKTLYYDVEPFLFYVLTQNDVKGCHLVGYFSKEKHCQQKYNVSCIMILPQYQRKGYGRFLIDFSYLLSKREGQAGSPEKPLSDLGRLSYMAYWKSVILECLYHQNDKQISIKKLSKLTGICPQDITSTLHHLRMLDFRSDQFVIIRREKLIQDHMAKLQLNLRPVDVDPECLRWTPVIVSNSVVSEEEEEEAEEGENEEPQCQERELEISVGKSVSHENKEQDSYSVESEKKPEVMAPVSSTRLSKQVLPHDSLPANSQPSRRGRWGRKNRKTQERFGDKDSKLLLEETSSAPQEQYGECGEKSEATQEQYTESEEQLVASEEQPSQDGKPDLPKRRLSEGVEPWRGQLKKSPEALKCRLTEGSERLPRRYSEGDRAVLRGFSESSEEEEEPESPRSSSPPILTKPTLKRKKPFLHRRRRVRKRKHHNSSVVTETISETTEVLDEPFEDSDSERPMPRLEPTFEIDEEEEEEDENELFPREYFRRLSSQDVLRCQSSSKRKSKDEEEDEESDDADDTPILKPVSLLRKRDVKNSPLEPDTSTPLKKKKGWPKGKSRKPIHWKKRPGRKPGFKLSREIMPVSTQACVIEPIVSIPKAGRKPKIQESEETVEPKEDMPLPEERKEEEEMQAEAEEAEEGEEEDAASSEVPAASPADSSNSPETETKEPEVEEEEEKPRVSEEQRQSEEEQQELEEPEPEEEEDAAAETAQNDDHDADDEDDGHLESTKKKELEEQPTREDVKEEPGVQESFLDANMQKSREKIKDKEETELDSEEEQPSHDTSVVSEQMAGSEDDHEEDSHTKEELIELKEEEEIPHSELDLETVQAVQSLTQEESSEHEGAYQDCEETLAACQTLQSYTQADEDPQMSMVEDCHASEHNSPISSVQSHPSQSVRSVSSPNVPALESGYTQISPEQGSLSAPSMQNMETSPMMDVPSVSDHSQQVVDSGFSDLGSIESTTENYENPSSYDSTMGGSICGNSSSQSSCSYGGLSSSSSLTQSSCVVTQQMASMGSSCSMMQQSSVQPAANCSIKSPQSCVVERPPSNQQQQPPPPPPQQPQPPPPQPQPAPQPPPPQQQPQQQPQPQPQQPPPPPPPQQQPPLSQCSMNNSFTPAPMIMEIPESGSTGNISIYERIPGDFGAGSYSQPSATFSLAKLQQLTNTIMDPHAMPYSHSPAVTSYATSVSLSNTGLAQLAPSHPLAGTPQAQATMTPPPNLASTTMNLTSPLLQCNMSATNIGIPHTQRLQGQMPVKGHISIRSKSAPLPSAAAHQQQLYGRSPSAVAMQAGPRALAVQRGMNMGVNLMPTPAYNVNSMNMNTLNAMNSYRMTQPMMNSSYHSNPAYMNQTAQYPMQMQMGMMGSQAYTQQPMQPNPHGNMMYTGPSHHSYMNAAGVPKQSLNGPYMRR

COc1cc2c(NS(=O)(=O)c3c(OC)cc(C4CCCN(C)C4)cc3OC)noc2cc1Nc1cc(C2CC2)n[nH]1 (single isomer, unassigned) [Example 149, N-{6-[(3-cyclopropyl-1H-pyrazol-5-yl)amino]-5-methoxy-1,2-benzoxazol-3-yl}-2,6-dimethoxy-4-(1-methylpiperidin-3-yl)benzene-1-sulfonamide]
Ki [1, 4]: 0.6 nM | Ki [2, 5]: 5.3 nM | Ki [3, 6]: 19000 nM

COc1cc2c(NS(=O)(=O)c3c(OC)cc(C4CCCN(C)C4)cc3OC)noc2cc1Nc1cc(C2CC2)n[nH]1 (single isomer, unassigned) [Example 150, N-{6-[(3-cyclopropyl-1 H-pyrazol-5-yl)amino]-5-methoxy-1,2-benzoxazol-3-yl}-2,6-dimethoxy-4-(1-methylpiperidin-3-yl)benzene-1-sulfonamide]
Ki [1, 4]: 0.8 nM | Ki [2, 5]: 6.3 nM | Ki [3, 6]: 10300 nM

COc1cc2c(NS(=O)(=O)c3c(OC)cc(C(C)OC)cc3OC)noc2cc1Nc1cc(C2CC2)[nH]n1 (single isomer, unassigned) [Example 272, N-{6-[(5-cyclopropyl-1H-pyrazol-3-yl)amino]-5-methoxy-1,2-benzoxazol-3-yl}-2,6-dimethoxy-4-(1-methoxyethyl)benzene-1-sulfonamide]
Ki [1, 7]: 0.7 nM | Ki [2, 8]: 5 nM | Ki [3, 9]: 2650 nM

COc1cc2c(NS(=O)(=O)c3c(OC)cc(C(C)OC)cc3OC)noc2cc1Nc1cc(C2CC2)[nH]n1 (single isomer, unassigned) [Example 273, N-{6-[(5-cyclopropyl-1H-pyrazol-3-yl)amino]-5-methoxy-1,2-benzoxazol-3-yl}-2,6-dimethoxy-4-(1-methoxyethyl)benzene-1-sulfonamide]
Ki [1, 7]: 0.6 nM | Ki [2, 8]: 4.7 nM | Ki [3, 9]: 2020 nM

COc1cc2c(NS(=O)(=O)c3c(OC)cc(-c4cnc(N(C)C)cn4)cc3OC)noc2cc1Nc1cc(C2CC2)n[nH]1 [Example 217, N-{6-[(3-cyclopropyl-1H-pyrazol-5-yl)amino]-5-methoxy-1,2-benzoxazol-3-yl}-4-[5-(dimethylamino)pyrazin-2-yl]-2,6-dimethoxybenzene-1-sulfonamide]
Ki [1, 4]: 0.2 nM | Ki [2, 5]: 1.9 nM

COc1cc2c(NS(=O)(=O)c3c(OC)cc(-c4ncc(N(C)C)cn4)cc3OC)noc2cc1Nc1cc(C2CC2)n[nH]1 [Example 218, N-{6-[(3-cyclopropyl-1H-pyrazol-5-yl)amino]-5-methoxy-1,2-benzoxazol-3-yl}-4-[5-(dimethylamino)pyrimidin-2-yl]-2,6-dimethoxybenzene-1-sulfonamide]
Ki [1, 4]: 0.1 nM | Ki [2, 5]: 0.4 nM

COc1cc2c(NS(=O)(=O)c3c(OC)cc(-c4ccc(C)nn4)cc3OC)noc2cc1Nc1cc(C2CC2)n[nH]1 [Example 219, N-{6-[(3-cyclopropyl-1H-pyrazol-5-yl)amino]-5-methoxy-1,2-benzoxazol-3-yl}-2,6-dimethoxy-4-(6-methylpyridazin-3-yl)benzene-1-sulfonamide]
Ki [1, 4]: 0.2 nM | Ki [2, 5]: 1.9 nM

COc1cc2c(NS(=O)(=O)c3c(OC)cc(-c4cc5n(n4)CCOC5)cc3OC)noc2cc1Nc1cc(C2CC2)n[nH]1 [Example 220, N-{6-[(3-cyclopropyl-1H-pyrazol-5-yl)amino]-5-methoxy-1,2-benzoxazol-3-yl}-4-(6,7-dihydro-4H-pyrazolo[5,1-c][1,4]oxazin-2-yl)-2,6-dimethoxybenzene-1-sulfonamide]
Ki [1, 4]: 0.4 nM | Ki [2, 5]: 4 nM

COc1cc2c(NS(=O)(=O)c3c(OC)cc(-c4ncc(C#N)cn4)cc3OC)noc2cc1Nc1cc(C2CC2)n[nH]1 [Example 224, 4-(5-cyanopyrimidine-2-yl)-N-{6-[(3-cyclopropyl-1 H-pyrazol-5-yl)amino]-5-methoxy-1,2-benzoxazol-3-yl}-2,6-dimethoxybenzene-1-sulfonamide]
Ki [1, 4]: 1.5 nM | Ki [2, 5]: 7.2 nM

COc1cc2c(NS(=O)(=O)c3c(OC)cc(-c4ncc5c(n4)CN(C)CC5)cc3OC)noc2cc1Nc1cc(C2CC2)n[nH]1 [Example 225, N-{6-[(3-cyclopropyl-1 H-pyrazol-5-yl)amino]-5-methoxy-1,2-benzoxazol-3-yl}-2,6-dimethoxy-4-(7-methyl-5,6,7,8-tetrahydropyrido[3,4-d]pyrimidin-2-yl)benzene-1-sulfonamide]
Ki [1, 4]: 0.6 nM | Ki [2, 5]: 7 nM

CCc1cc(Nc2cc3onc(NS(=O)(=O)c4c(OC)cc(-c5nccn5C)cc4OC)c3cc2OC)[nH]n1 [Example 237, N-{6-[(3-ethyl-1H-pyrazol-5-yl)amino]-5-methoxy-1,2-benzoxazol-3-yl}-2,6-dimethoxy-4-(1-methyl-1H-imidazol-2-yl)benzene-1-sulfonamide]
Ki [1, 4]: 1.4 nM | Ki [2, 5]: 15.4 nM

CCc1cc(Nc2cc3onc(NS(=O)(=O)c4c(OC)cc(-c5cn(C)cn5)cc4OC)c3cc2OC)[nH]n1 [Example 238, N-{6-[(3-ethyl-1H-pyrazol-5-yl)amino]-5-methoxy-1,2-benzoxazol-3-yl}-2,6-dimethoxy-4-(1-methyl-1H-imidazol-4-yl)benzene-1-sulfonamide]
Ki [1, 4]: 1.2 nM | Ki [2, 5]: 12.7 nM

COc1cc2c(NS(=O)(=O)c3c(OC)cc(N4CC(F)C4)cc3OC)noc2cc1Nc1cc(C2CC2)n[nH]1 [Example 252, N-{6-[(3-cyclopropyl-1H-pyrazol-5-yl)amino]-5-methoxy-1,2-benzoxazol-3-yl}-4-(3-fluoroazetidin-1-yl)-2,6-dimethoxybenzene-1-sulfonamide]
Ki [1, 7]: 0.8 nM | Ki [2, 8]: 5.7 nM

COc1cc2c(NS(=O)(=O)c3c(OC)cc(N4CC(OC)C4)cc3OC)noc2cc1Nc1cc(C2CC2)n[nH]1 [Example 253, N-{6-[(3-cyclopropyl-1H-pyrazol-5-yl)amino]-5-methoxy-1,2-benzoxazol-3-yl}-2,6-dimethoxy-4-(3-methoxyazetidin-1-yl)benzene-1-sulfonamide]
Ki [1, 7]: 0.6 nM | Ki [2, 8]: 5 nM

COc1cc2c(NS(=O)(=O)c3c(OC)cc(N4C(=O)CCC45CCC5)cc3OC)noc2cc1Nc1cc(C2CC2)n[nH]1 [Example 255, N-{6-[(3-cyclopropyl-1 H-pyrazol-5-yl)amino]-5-methoxy-1,2-benzoxazol-3-yl}-2,6-dimethoxy-4-(6-oxo-5-azaspiro[3.4]octan-5-yl)benzene-1-sulfonamide]
Ki [1, 7]: 0.8 nM | Ki [2, 8]: 4.2 nM

COc1cc2c(NS(=O)(=O)c3c(OC)cc(C(=O)N4CCC(F)(F)C4)cc3OC)noc2cc1Nc1cc(C2CC2)n[nH]1 [Example 257, N-{6-[(3-cyclopropyl-1H-pyrazol-5-yl)amino]-5-methoxy-1,2-benzoxazol-3-yl}-4-(3,3-difluoropyrrolidine-1-carbonyl)-2,6-dimethoxybenzene-1-sulfonamide]
Ki [1, 7]: 1.6 nM | Ki [2, 8]: 9.5 nM

COc1cc2c(NS(=O)(=O)c3c(OC)cc(C(=O)N4CC[C@@H](F)C4)cc3OC)noc2cc1Nc1cc(C2CC2)n[nH]1 [Example 258, N-{6-[(3-cyclopropyl-1H-pyrazol-5-yl)amino]-5-methoxy-1,2-benzoxazol-3-yl}-4-[(3R)-3-fluoropyrrolidine-1-carbonyl]-2,6-dimethoxybenzene-1-sulfonamide]
Ki [1, 7]: 1 nM | Ki [2, 8]: 5.9 nM

COc1cc2c(NS(=O)(=O)c3c(OC)cc(C(=O)N4CCC[C@@H](F)C4)cc3OC)noc2cc1Nc1cc(C2CC2)n[nH]1 [Example 260, N-{6-[(3-cyclopropyl-1H-pyrazol-5-yl)amino]-5-methoxy-1,2-benzoxazol-3-yl}-4-[(3R)-3-fluoropiperidine-1-carbonyl]-2,6-dimethoxybenzene-1-sulfonamide]
Ki [1, 7]: 1 nM | Ki [2, 8]: 6.7 nM

COc1cc2c(NS(=O)(=O)c3c(OC)cc(C(=O)N4CCC[C@H](F)C4)cc3OC)noc2cc1Nc1cc(C2CC2)n[nH]1 [Example 261, N-{6-[(3-cyclopropyl-1H-pyrazol-5-yl)amino]-5-methoxy-1,2-benzoxazol-3-yl}-4-[(3S)-3-fluoropiperidine-1-carbonyl]-2,6-dimethoxybenzene-1-sulfonamide]
Ki [1, 7]: 1.1 nM | Ki [2, 8]: 6.7 nM

COc1cc2c(NS(=O)(=O)c3c(OC)cc(C(=O)N4CC(F)C4)cc3OC)noc2cc1Nc1cc(C2CC2)n[nH]1 [Example 262, N-{6-[(3-cyclopropyl-1H-pyrazol-5-yl)amino]-5-methoxy-1,2-benzoxazol-3-yl}-4-(3-fluoroazetidine-1-carbonyl)-2,6-dimethoxybenzene-1-sulfonamide]
Ki [1, 7]: 1 nM | Ki [2, 8]: 8.1 nM

COc1cc2c(NS(=O)(=O)c3c(OC)cc(C(=O)N4CCC(F)(F)CC4)cc3OC)noc2cc1Nc1cc(C2CC2)n[nH]1 [Example 263, N-{6-[(3-cyclopropyl-1H-pyrazol-5-yl)amino]-5-methoxy-1,2-benzoxazol-3-yl}-4-(4,4-difluoropiperidine-1-carbonyl)-2,6-dimethoxybenzene-1-sulfonamide]
Ki [1, 7]: 1.4 nM | Ki [2, 8]: 9.8 nM

COc1cc2c(NS(=O)(=O)c3c(OC)cc(C(=O)N4CC(F)(F)C4)cc3OC)noc2cc1Nc1cc(C2CC2)n[nH]1 [Example 264, N-{6-[(3-cyclopropyl-1H-pyrazol-5-yl)amino]-5-methoxy-1,2-benzoxazol-3-yl}-4-(3,3-difluoroazetidine-1-carbonyl)-2,6-dimethoxybenzene-1-sulfonamide]
Ki [1, 7]: 2.3 nM | Ki [2, 8]: 17.6 nM

COc1cc2c(NS(=O)(=O)c3c(OC)cc(C4CCO4)cc3OC)noc2cc1Nc1cc(C2CC2)n[nH]1 (stereo not shown) [Example 276, N-{6-[(3-cyclopropyl-1H-pyrazol-5-yl)amino]-5-methoxy-1,2-benzoxazol-3-yl}-2,6-dimethoxy-4-(oxetan-2-yl)benzene-1-sulfonamide]
Ki [1, 7]: 1.3 nM | Ki [2, 8]: 16.8 nM

N-{6-[(3-cyclopropyl-1 H-pyrazol-5-yl)amino]-5-methoxy-1,2-benzoxazol-3-yl}-4-(4,4-difluoro-1-methylpiperidin-3-yl)-2,6-dimethoxybenzene-1-sulfonamide [Example 176]
Ki [1, 4]: 1 nM | Ki [2, 5]: 2.7 nM
